Legend:
[1] = 20 clinical studies, more than 5000 patients; cited from earlier work
[2] = CBS in one patient with symptomatic microscopic colitis; type: in vivo, human; conditions: CBS 600 mg three times daily for one month
[3] = Inventor's clinical experience: CBS in patients with severe flatus passage and gastrointestinal discomfort after nonabsorbable carbohydrates; type: in vivo, human; conditions: six patients; CBS 125 mg, 1 or 2 capsules per day or twice a day for one to two days
Experimental: (§1) The inventor has specific clinical experience with the use of CBS. Six patients who had episodic both severe flatus passage and gastrointestinal discomfort after the consumption of large quantities of nonabsorbable carbohydrates were treated with CBS obtained from a compounding pharmacy. […] A single dose of CBS 125 mg was administered to a dog with excessive and bothersome gas following a large meal including table food.

[4] = Single dose of CBS in a dog with excessive gas after a large meal; type: in vivo; conditions: single dose of CBS 125 mg
Experimental: as §1

[5] = cited from earlier work

Compound: CNC(=C[N+](=O)[O-])NCCSCc1ccc(CN(C)C)o1.O=C([O-])CC(O)(CC(=O)[O-])C(=O)[O-].[Bi+3] [ranitidine bismuth citrate]
- side effects compared with ranitidine alone [1]: no different than those seen with ranitidine alone

Compound: colloidal bismuth subcitrate [CBS]
- symptoms of microscopic colitis [2]: complete resolution of symptoms
- acute symptoms of excess of gas passage [3]: completely eliminated all of acute symptoms
- toxic effects [3]: No toxic effects were noted
- flatus after administration [4]: Complete session of flatus
- safety of use in nonulcer dyspepsia ([5]; 480 mg of CBS daily for 8 weeks): safe use
- serum bismuth levels after ingestion ([5]; up to 480 mg per day of CBS for more than 4 weeks): safe serum bismuth levels
